Measurements reported in patent US10344330B2, “Glatiramer acetate response biomarker mRNA potency assay” (Mylan Inc., priority 2013, dated 2019).

B1: MBP: myelin basic protein, a negative control (protein, UniProt P02686 1-304, looked up)
Myelin basic protein: MGNHAGKRELNAEKASTNSETNRGESEKKRNLGELSRTTSEDNEVFGEADANQNNGTSSQDTAVTDSKRTADPKNAWQDAHPADPGSRPHLIRLFSRDAPGREDNTFKDRPSESDELQTIQEDSAATSESLDVMASQKRPSQRHGSKYLATASTMDHARHGFLPRHRDTGILDSIGRFFGGDRGAPKRGSGKDSHHPARTAHYGSLPQKSHGRTQDENPVVHFFKNIVTPRTPPPSQGKGRGLSLSRFSWGAEGQRPGFGYGGRASDYKSAHKGFKGVDAQGTLSKIFKLGGRDSRSGSPMARR

System: IL-10 mRNA in LN cells
Assay: IL-10 mRNA by real-time PCR in LN cells of GA-immunized CD-1, BALB/cByJ, SJL/J mice (Example III)
Type: cell-based, mouse
Settings: 6 hours
Description: On Day 0, mice were immunized with 250 μg GA (GMA, Mylan Pharmaceuticals, Inc.) and CFA. The GA solution (20 mg/mL) was diluted with Dulbecco's Phosphate-Buffered Saline to 5 mg/mL. The dosing formulation consisted of equal volumes of the diluted GA solution (5 mg/mL) and CFA solution, mixed until well-emulsified. Animals were weighed and allocated to groups. Animals were dosed by injection into four footpads. The injection volume per animal was 0.1 mL (about 10 μL into each front footpad, and 40 μL into each hind footpad).
Immunized animals were euthanized by cervical dislocation on Day 10 post-immunization. Lymph node cells were isolated from animals and treated with Myelin Basic Protein (MBP, a negative control), Concanavalin A (ConA, a positive control) or GA as shown in Table 16. Lymph nodes in the axillary and popliteal regions were removed aseptically in a purifier clean bench. […] The LN were then washed 3 times with −5 mL of RPMI medium, and isolated by pressing the LN with a syringe plunger. […] The cell suspension was centrifuged at about 200×g for 10 minutes at about 4° C. and re-suspended in ice cold enriched DCCM-1 medium. Cells were seeded in 96-well tissue culture plates.
LN cells isolated from GA-immunized animals were stimulated with GA (GMA, Mylan Pharmaceuticals, Inc.) at concentrations as indicated in Tables 16 and 17. A positive control was prepared by treating LN cells with 2.5 μg/mL concavalin A (ConA, a non-specific T cell stimulant). Myelin basic protein (MBP, 10 μg/mL) and enriched DCCM-1 medium served as negative controls. The cells from all groups each were stimulated with the same GA lot. Each reaction was set up in triplicate.
After incubation at about 37° C. in a humidified CO2 incubator for 6 hours, the cells were lysed for total RNA isolation. Total RNA was isolated from treated LN cells using SV 96 Total RNA Isolation System according to the manufacturer's protocol (Promega, Cat. #Z3500). Cells were washed once with Phosphate Buffered Saline (PBS) and lysed in RNA lysis buffer. The lysate was transferred to wells of the SV 96 binding plate. Samples were washed with RNA wash solution and treated with DNase. Total RNA was eluted with nuclease-free water from the binding plate.
After the reverse transcriptase reaction was completed, cDNA samples were used directly for real-time PCR to measure the response biomarker mRNA levels produced by the stimulated cells. […] All probes for target genes contained FAM dye, and probes for the internal control contained VIC®/MGB dye. Samples will be prepared and run in 96-well plates using a Real-Time PCR system (7500, Life Technologies). This system allows direct detection of PCR-product formation by measuring the increase in fluorescent emission continuously during the PCR reaction. A relative quantitation method was used to analyze changes in mouse IL-2, IL-4, IL-5, IL-10, IL-13, IFN-γ and TNF-α expression in GA-treated samples relative to the untreated control (enriched DCCM-1 treated) samples. The Real-Time PCR program was:
The levels of mouse cytokine amplicons (IL-2, IL-4, IL-5, IL-10, IL-13, mIFN-γ and TNF-α) were normalized to internal probe levels (GAPDH) from the same samples. The following equations were used to calculate the relative increase in response to GA stimulation compared to the control sample: ΔCT=CT_target−CT_reference ΔΔCT=−ΔCT_Treated−CT_VC

[1] = Group 1C: CD-1, GA-immunized, stimulation 10 μg/mL
[2] = Group 2C: BALB/cByJ, GA-immunized, stimulation 10 μg/mL
[3] = Group 3C: SJL/J, GA-immunized, stimulation 10 μg/mL

| Molecule | IL-10 mRNA Expression (Group 1C: CD-1, GA-immunized, stimulation 0.3 μg/mL) [fold change vs control] | IL-10 mRNA Expression (Group 1C: CD-1, GA-immunized, stimulation 1 μg/mL) [fold change vs control] | IL-10 mRNA Expression (Group 1C: CD-1, GA-immunized, stimulation 3 μg/mL) [fold change vs control] | IL-10 mRNA Expression [1] [fold change vs control] | IL-10 mRNA Expression (Group 2C: BALB/cByJ, GA-immunized, stimulation 0.3 μg/mL) [fold change vs control] | IL-10 mRNA Expression (Group 2C: BALB/cByJ, GA-immunized, stimulation 1 μg/mL) [fold change vs control] | IL-10 mRNA Expression (Group 2C: BALB/cByJ, GA-immunized, stimulation 3 μg/mL) [fold change vs control] | IL-10 mRNA Expression [2] [fold change vs control] | IL-10 mRNA Expression (Group 3C: SJL/J, GA-immunized, stimulation 0.3 μg/mL) [fold change vs control] | IL-10 mRNA Expression (Group 3C: SJL/J, GA-immunized, stimulation 1 μg/mL) [fold change vs control] | IL-10 mRNA Expression (Group 3C: SJL/J, GA-immunized, stimulation 3 μg/mL) [fold change vs control] | IL-10 mRNA Expression [3] [fold change vs control] | IL-10 mRNA Expression (Group 1C: CD-1, GA-immunized, stimulation 2.5 μg/mL) [fold change vs control] | IL-10 mRNA Expression (Group 2C: BALB/cByJ, GA-immunized, stimulation 2.5 μg/mL) [fold change vs control] | IL-10 mRNA Expression (Group 3C: SJL/J, GA-immunized, stimulation 2.5 μg/mL) [fold change vs control] |
| --- | --- | --- | --- | --- | --- | --- | --- | --- | --- | --- | --- | --- | --- | --- | --- |
| L-glutamic acid polymer with L-alanine, L-lysine and L-tyrosine, acetate (salt) [GA] | 0.7 | 0.8 | 0.9 | 0.9 | 0.7 | 1.0 | 1.3 | 1.3 | 0.5 | 0.6 | 0.5 | 0.8 |  |  |  |
| Concanavalin A [ConA, reference compound] |  |  |  |  |  |  |  |  |  |  |  |  | 0.4 | 0.9 | 0.4 |
| B1 |  |  |  | 0.7 |  |  |  | 1.0 |  |  |  | 0.3 |  |  |  |
